Laboratory results taken from ChEMBL document CHEMBL1201862, “PubChem BioAssay data set” (2004).
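Dose response: 5 concentrations. Exposure: 48 h. Format: 96-well plates. Endpoint: linear interpolation; highest concentration if not reached. At the GI50, growth is halved.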 Activity calls are given as the source filed them. No stated cut-off is given here; in the data, active = GI50 up to about 1.1 µM and inactive = higher.

Assays:
Experiment in all cases: NCI anticancer screen, dose series, 48 h
786-0 = tested on: 786-0
IGROV-1 = tested on: IGROV-1
LOX IMVI = tested on: LOX IMVI
A498 = tested on: A498
DU-145 = tested on: DU-145
SNB-75 = tested on: SNB-75
SW-620 = tested on: SW-620
CAKI-1 = tested on: CAKI-1
SNB-19 = tested on: SNB-19
HCC 2998 = tested on: HCC 2998
BT-549 = tested on: BT-549
MDA-N = tested on: MDA-N
K562 = tested on: K562
HCT-116 = tested on: HCT-116
PC-3 = tested on: PC-3
UACC-62 = tested on: UACC-62
MCF7 = tested on: MCF7
NCI-H226 = tested on: NCI-H226
SR = tested on: SR
OVCAR-8 = tested on: OVCAR-8
OVCAR-4 = tested on: OVCAR-4
RXF 393 = tested on: RXF 393
MOLT-4 = tested on: MOLT-4
SF-268 = tested on: SF-268
ACHN = tested on: ACHN
HOP-62 = tested on: HOP-62
RPMI-8226 = tested on: RPMI-8226
SN12C = tested on: SN12C
NCI-H23 = tested on: NCI-H23
UO-31 = tested on: UO-31
U-251 = tested on: U-251
M14 = tested on: M14
T47D = tested on: T47D
KM12 = tested on: KM12
NCI-H460 = tested on: NCI-H460
Malme-3M = tested on: Malme-3M
SF-539 = tested on: SF-539
MDA-MB-435 = tested on: MDA-MB-435
HCT-15 = tested on: HCT-15
SK-OV-3 = tested on: SK-OV-3
OVCAR-3 = tested on: OVCAR-3
SK-MEL-5 = tested on: SK-MEL-5
CCRF-CEM = tested on: CCRF-CEM
SK-MEL-2 = tested on: SK-MEL-2
SF-295 = tested on: SF-295
Hs-578T = tested on: Hs-578T
HT-29 = tested on: HT-29
COLO 205 = tested on: COLO 205
UACC-257 = tested on: UACC-257
TK-10 = tested on: TK-10
SK-MEL-28 = tested on: SK-MEL-28
HOP-92 = tested on: HOP-92
A549 = tested on: A549
OVCAR-5 = tested on: OVCAR-5
NCI/ADR-RES = tested on: NCI/ADR-RES
NCI-H522 = tested on: NCI-H522
EKVX = tested on: EKVX
MDA-MB-231 = tested on: MDA-MB-231
HL-60 = tested on: HL-60

## CC(C)CC(=O)OC[n+]1cccc(-c2c(COC(=O)NC(C)C)c(COC(=O)NC(C)C)c3n2CCC3)c1
786-0
  GI50: 27.5 µM (inactive)
IGROV-1
  GI50: > 100 µM (inactive)
LOX IMVI
  GI50: 26.8 µM (inactive)
A498
  GI50: 23.3 µM (inactive)
DU-145
  GI50: 24.7 µM (inactive)
SNB-75
  GI50: 39.8 µM (inactive)
SW-620
  GI50: 51.1 µM (inactive)
CAKI-1
  GI50: 17.2 µM (inactive)
SNB-19
  GI50: > 100 µM (inactive)
HCC 2998
  GI50: > 100 µM (inactive)
BT-549
  GI50: 77.3 µM (inactive)
MDA-N
  GI50: > 100 µM (inactive)
K562
  GI50: 51.9 µM (inactive)
HCT-116
  GI50: 44 µM (inactive)
PC-3
  GI50: 48.1 µM (inactive)
UACC-62
  GI50: 25.6 µM (inactive)
MCF7
  GI50: 45.1 µM (inactive)
NCI-H226
  GI50: > 100 µM (inactive)
SR
  GI50: > 100 µM (inactive)
OVCAR-8
  GI50: 48.8 µM (inactive)
OVCAR-4
  GI50: 38.5 µM (inactive)
RXF 393
  GI50: 33.9 µM (inactive)
MOLT-4
  GI50: 38 µM (inactive)
SF-268
  GI50: 29 µM (inactive)
ACHN
  GI50: 24.9 µM (inactive)
HOP-62
  GI50: 41.7 µM (inactive)
RPMI-8226
  GI50: 15.2 µM (inactive)
SN12C
  GI50: 36.9 µM (inactive)
NCI-H23
  GI50: 31.1 µM (inactive)
UO-31
  GI50: 31.3 µM (inactive)
U-251
  GI50: 41.5 µM (inactive)
M14
  GI50: 61.4 µM (inactive)
T47D
  GI50: 51.3 µM (inactive)
KM12
  GI50: > 100 µM (inactive)
NCI-H460
  GI50: 30.1 µM (inactive)
Malme-3M
  GI50: 83.6 µM (inactive)
SF-539
  GI50: 37.5 µM (inactive)
MDA-MB-435
  GI50: > 100 µM (inactive)
HCT-15
  GI50: 66.8 µM
SK-OV-3
  GI50: 55.3 µM (inactive)
OVCAR-3
  GI50: > 100 µM (inactive)
SK-MEL-5
  GI50: 58.5 µM (inactive)
CCRF-CEM
  GI50: 34.1 µM (inactive)
SK-MEL-2
  GI50: 34 µM (inactive)
SF-295
  GI50: 39 µM (inactive)
Hs-578T
  GI50: 74.1 µM (inactive)
HT-29
  GI50: 52.6 µM (inactive)
COLO 205
  GI50: 70.3 µM (inactive)
UACC-257
  GI50: > 100 µM (inactive)
TK-10
  GI50: 63.5 µM (inactive)
SK-MEL-28
  GI50: > 100 µM (inactive)
HOP-92
  GI50: 26.6 µM (inactive)
A549
  GI50: 79.1 µM (inactive)
OVCAR-5
  GI50: 60.8 µM (inactive)
NCI/ADR-RES
  GI50: 35.2 µM (inactive)
NCI-H522
  GI50: 23.7 µM (inactive)
EKVX
  GI50: > 100 µM (inactive)
MDA-MB-231
  GI50: 37.4 µM (inactive)

## O=C(NCCCCCCO)c1cccc2cc3ccccc3nc12
786-0
  GI50: 13.8 µM (inactive)
IGROV-1
  GI50: 17.7 µM (inactive)
LOX IMVI
  GI50: 16.6 µM (inactive)
A498
  GI50: > 10 µM (inactive)
DU-145
  GI50: 17.7 µM (inactive)
SNB-75
  GI50: 21.9 µM (inactive)
SW-620
  GI50: 29.9 µM (inactive)
CAKI-1
  GI50: 17.4 µM (inactive)
SNB-19
  GI50: 15.8 µM (inactive)
BT-549
  GI50: 16.2 µM (inactive)
MDA-N
  GI50: 3.61 µM (inactive)
K562
  GI50: 32.4 µM (inactive)
HCT-116
  GI50: 17.2 µM (inactive)
PC-3
  GI50: 17 µM (inactive)
UACC-62
  GI50: 16.5 µM (inactive)
MCF7
  GI50: 20.4 µM (inactive)
NCI-H226
  GI50: 16.6 µM (inactive)
SR
  GI50: > 10 µM (inactive)
OVCAR-8
  GI50: 32.3 µM (inactive)
OVCAR-4
  GI50: 18.9 µM (inactive)
RXF 393
  GI50: 17.2 µM (inactive)
MOLT-4
  GI50: 16.7 µM (inactive)
ACHN
  GI50: 16.4 µM (inactive)
HOP-62
  GI50: 17.9 µM (inactive)
RPMI-8226
  GI50: 16.7 µM (inactive)
SN12C
  GI50: 24 µM (inactive)
U-251
  GI50: 38.9 µM (inactive)
T47D
  GI50: 10.8 µM (inactive)
KM12
  GI50: 18.7 µM (inactive)
NCI-H460
  GI50: 16 µM (inactive)
SF-539
  GI50: 16.7 µM (inactive)
MDA-MB-435
  GI50: 21.7 µM (inactive)
HCT-15
  GI50: 17.9 µM
SK-OV-3
  GI50: 22.4 µM (inactive)
OVCAR-3
  GI50: 19.9 µM (inactive)
SK-MEL-5
  GI50: 18.1 µM (inactive)
CCRF-CEM
  GI50: 32.3 µM (inactive)
SK-MEL-2
  GI50: 16.1 µM (inactive)
SF-295
  GI50: 16.7 µM (inactive)
Hs-578T
  GI50: 25.8 µM (inactive)
HT-29
  GI50: 17.5 µM (inactive)
COLO 205
  GI50: 11.7 µM (inactive)
UACC-257
  GI50: 17.6 µM (inactive)
HL-60
  GI50: 25.5 µM (inactive)
TK-10
  GI50: 16.6 µM (inactive)
SK-MEL-28
  GI50: 20.6 µM (inactive)
HOP-92
  GI50: 25.8 µM (inactive)
A549
  GI50: 15.5 µM (inactive)
OVCAR-5
  GI50: 18.6 µM (inactive)
NCI/ADR-RES
  GI50: 36.5 µM (inactive)
NCI-H522
  GI50: 13.3 µM (inactive)
EKVX
  GI50: 16.7 µM (inactive)
MDA-MB-231
  GI50: 21 µM (inactive)

## CC(C)(C)OC(=O)N(O)[C@@H]1C=C[C@H](n2cnc3c(N)ncnc32)C1
786-0
  GI50: > 100 µM (inactive)
IGROV-1
  GI50: 59 µM (inactive)
LOX IMVI
  GI50: > 100 µM (inactive)
A498
  GI50: > 100 µM (inactive)
DU-145
  GI50: > 100 µM (inactive)
SNB-75
  GI50: 33.9 µM (inactive)
SW-620
  GI50: > 100 µM (inactive)
CAKI-1
  GI50: > 100 µM (inactive)
SNB-19
  GI50: > 100 µM (inactive)
HCC 2998
  GI50: > 100 µM (inactive)
BT-549
  GI50: > 100 µM (inactive)
MDA-N
  GI50: > 100 µM (inactive)
K562
  GI50: > 100 µM (inactive)
HCT-116
  GI50: > 100 µM (inactive)
PC-3
  GI50: > 100 µM (inactive)
UACC-62
  GI50: > 100 µM (inactive)
MCF7
  GI50: > 100 µM (inactive)
NCI-H226
  GI50: 26.5 µM (inactive)
SR
  GI50: > 100 µM (inactive)
OVCAR-8
  GI50: > 100 µM (inactive)
OVCAR-4
  GI50: > 100 µM (inactive)
RXF 393
  GI50: > 100 µM (inactive)
MOLT-4
  GI50: > 100 µM (inactive)
SF-268
  GI50: > 100 µM (inactive)
ACHN
  GI50: > 100 µM (inactive)
HOP-62
  GI50: 43 µM (inactive)
RPMI-8226
  GI50: > 100 µM (inactive)
SN12C
  GI50: > 100 µM (inactive)
NCI-H23
  GI50: > 100 µM (inactive)
UO-31
  GI50: > 100 µM (inactive)
U-251
  GI50: > 100 µM (inactive)
M14
  GI50: > 100 µM (inactive)
T47D
  GI50: > 100 µM (inactive)
KM12
  GI50: > 100 µM (inactive)
NCI-H460
  GI50: > 100 µM (inactive)
Malme-3M
  GI50: > 100 µM (inactive)
SF-539
  GI50: > 100 µM (inactive)
MDA-MB-435
  GI50: > 100 µM (inactive)
HCT-15
  GI50: > 100 µM
SK-OV-3
  GI50: > 100 µM (inactive)
OVCAR-3
  GI50: > 100 µM (inactive)
SK-MEL-5
  GI50: 70.5 µM (inactive)
CCRF-CEM
  GI50: > 100 µM (inactive)
SK-MEL-2
  GI50: > 100 µM (inactive)
SF-295
  GI50: > 100 µM (inactive)
Hs-578T
  GI50: 92.3 µM (inactive)
COLO 205
  GI50: > 100 µM (inactive)
UACC-257
  GI50: > 100 µM (inactive)
TK-10
  GI50: > 100 µM (inactive)
SK-MEL-28
  GI50: > 100 µM (inactive)
HOP-92
  GI50: > 100 µM (inactive)
A549
  GI50: > 100 µM (inactive)
OVCAR-5
  GI50: > 100 µM (inactive)
NCI/ADR-RES
  GI50: > 100 µM (inactive)
NCI-H522
  GI50: > 100 µM (inactive)
EKVX
  GI50: > 100 µM (inactive)
MDA-MB-231
  GI50: > 100 µM (inactive)
